Laboratory results from patent US10689399B2, “Substituted 3,4,5,6,8,10,14,14a-octahydro-2h-2,6-methanopyrido[1′,2′:4,5]pyrazino[2,1-b][1,3]oxazocines and methods for treating viral infections” (Gilead Sciences, Inc., priority 2012, dated 2020).
Where two headings read alike, the source gives them in different places.

Tested on: HIV-IIIb
Test: Antiviral assay in MT4 cells
Assay type: cell-based
Conditions: Human immunodeficiency virus 1, IIIB, MT4, 120 h
In short: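 MT4 cells pre-infected with HIV-IIIb (0.004 m.o.i.) at 37 °C, or mock-infected, then seeded at 2000 cells/well onto 3-fold serially diluted compound (10 concentrations, quadruplicate) in RPMI 1640 with 10% FBS. After 5 days at 37 °C, cell viability read by CellTiter-Glo luminescence.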

[1] = MT4 cells infected with HIV-IIIb, 5 days, CellTiter-Glo, read-out: EC50 nM in MT-4
[2] = read-out: EC50 nM in MT-4, MT4 cells infected with HIV-IIIb, 5 days, CellTiter-Glo

Compound | EC50 [1] | EC50 [2]
O=C(NCc1c(F)cc(F)cc1F)c1cn2c(c(O)c1=O)C(=O)N1[C@@H]3CC[C@@H](C3)O[C@H]1C2 [Compound 45, (13aS)-8-hydroxy-7,9-dioxo-N-(2,4,6-trifluorobenzyl)-2,3,4,5,7,9,13,13a-octahydro-2,5-methanopyrido[1′,2′:4,5]pyrazino[2,1-b][1,3]oxazepine-10-carboxamide] | 2.4 nM | –
O=C(NCc1ccc(F)cc1OC1CC1)c1cn2c(c(O)c1=O)C(=O)N1[C@H]3CC[C@H](C3)O[C@@H]1C2 [Compound 53, (2R,5S,13aR)—N-(2-cyclopropoxy-4-fluorobenzyl)-8-hydroxy-7,9-dioxo-2,3,4,5,7,9,13,13a-octahydro-2,5-methanopyrido[1%2′: 4,5]pyrazino[2,1-b][1,3]oxazepine-10-carboxamide] | 14.3 nM | –
O=C(NCc1c(F)cc(F)cc1F)c1cn2c(c(O)c1=O)C(=O)N1[C@H]3CC(F)C(C3)[C@@H]1C2 (stereo in doubt) [Compound 56, (1R,2S,4R,12aR)-2-fluoro-7-hydroxy-6,8-dioxo-N-(2,4,6-trifluorobenzyl)-1,2,3,4,6,8,12,12a-octahydro-1,4-methanodipyrido[1,2-a:1′,2′-d]pyrazine-9-carboxamide] | 3.1 nM | –
O=C(NCc1ncc(F)cc1F)c1cn2c(c(O)c1=O)C(=O)N1[C@H]3CC[C@H](C3)[C@@H]1C2 [Compound 76, (1R,4S,12aR)—N-((3,5-difluoropyridin-2-yl)methyl)-7-hydroxy-6,8-dioxo-1,2,3,4,6,8,12,12a-octahydro-1,4-methanodipyrido[1,2-a:1′,2′-d]pyrazine-9-carboxamide] | 17.8 nM | –
O=C(NCc1c(F)cc(F)cc1F)c1cn2c(c(O)c1=O)C(=O)N1[C@@H](C2)[C@H]2C[C@@H]1C(F)(F)C2 [Compound 98, (1S,4R,12aR)-3,3-difluoro-7-hydroxy-6,8-dioxo-N-(2,4,6-trifluorobenzyl)-1,2,3,4,6,8,12,12a-octahydro-1,4-methanodipyrido[1,2-a:1′,2′-d]pyrazine-9-carboxamide] | 2.4 nM | –
O=C(NCc1c(F)cc(F)cc1F)c1cn2c(c(O)c1=O)C(=O)N1[C@@H]3C[C@@H](C(F)C3F)[C@@H]1C2 (stereo partly drawn) [Compound 103, (1R,4R,12aR)-2,3-difluoro-7-hydroxy-6,8-dioxo-N-(2,4,6-trifluorobenzyl)-1,2,3,4,6,8,12,12a-octahydro-1,4-methanodipyrido[1,2-a:1′,2′-d]pyrazine-9-carboxamide] | 10.3 nM | –
O=C(NCc1c(F)cc(F)cc1Cl)c1cn2c(c(O)c1=O)C(=O)N1[C@H]3CC[C@H](C3)[C@@H]1C2 [Compound 93, (1R,4S,12aR)—N-(2-chloro-4,6-difluorobenzyl)-7-hydroxy-6,8-dioxo-1,2,3,4,6,8,12,12a-octahydro-1,4-methanodipyrido[1,2-a:1′,2′-d]pyrazine-9-carboxamide] | 2.2 nM | –
O=C(NCc1c(F)cc(F)cc1F)c1cn2c(c(O)c1=O)C(=O)N1[C@@H]3C[C@H]([C@@H]1C2)C(F)(F)C3 [Compound 57, (1R,4R,12aR)-2,2-difluoro-7-hydroxy-6,8-dioxo-N-(2,4,6-trifluorobenzyl)-1,2,3,4,6,8,12,12a-octahydro-1,4-methanodipyrido[1,2-a:1′,2′-d]pyrazine-9-carboxamide] | 2.3 nM | –
O=C(NCc1ccc(F)cc1F)c1cn2c(c(O)c1=O)C(=O)N1C(C2)[C@H]2CC[C@@H]1C2 (stereo in doubt) [Compound 38, (1S,4R,12aR)—N-(2,4-difluorobenzyl)-7-hydroxy-6,8-dioxo-1,2,3,4,6,8,12,12a-octahydro-1,4-methanodipyrido[1,2-a:1′,2′-d]pyrazine-9-carboxamide] | – | 1.7 nM
C[C@@H](NC(=O)c1cn2c(c(O)c1=O)C(=O)N1[C@H]3CC[C@H](C3)O[C@@H]1C2)c1ccc(F)cc1F [Compound 12, (2R,5S,13aR)—N—((R)-1-(2,4-difluorophenyl)ethyl)-8-hydroxy-7,9-dioxo-2,3,4,5,7,9,13,13a-octahydro-2,5-methanopyrido[1′,2′:4,5]pyrazino[2,1-b][1,3]oxazepine-10-carboxamide] | 5.9 nM | –
O=C(NCc1ccc(F)cc1F)c1cn2c(c(O)c1=O)C(=O)N1C(C2)[N@@]2CC[C@@H]1C2 (stereo partly drawn) [Compound 4, (1S,4R)—N-(2,4-difluorobenzyl)-7-hydroxy-6,8-dioxo-3,4,6,8,12,12a-hexahydro-2H-1,4-methanopyrido[1′,2′:4,5]pyrazino[1,2-a]pyrimidine-9-carboxamide] | 14.8 nM | –
C[C@@H](NC(=O)c1cn2c(c(O)c1=O)C(=O)N1[C@@H]3CC[C@H](C3)O[C@@H]1C2)c1c(F)cc(F)cc1F [Compound 78, (2R,13aR)-8-hydroxy-7,9-dioxo-N—((R)-1-(2,4,6-trifluorophenyl)ethyl)-2,3,4,5,7,9,13,13a-octahydro-2,5-methanopyrido[1%2′: 4,5]pyrazino[2,1-b][1,3]oxazepine-10-carboxamide] | 5.6 nM | –
O=C(NCc1ccc(F)cc1Cl)c1cn2c(c(O)c1=O)C(=O)N1[C@H]3CC[C@H](C3)O[C@@H]1C2 [Compound 63, (2R,5S,13aR)—N-(2-chloro-4-fluorobenzyl)-8-hydroxy-7,9-dioxo-2,3,4,5,7,9,13,13a-octahydro-2,5-methanopyrido[1′,2′:4,5]pyrazino[2,1-b][1,3]oxazepine-10-carboxamide] | – | 2.5 nM
O=C(NCc1cccc(Cl)c1)c1cn2c(c(O)c1=O)C(=O)N1[C@H]3CC[C@H](C3)[C@@H]1C2 [Compound 72, (1R,4S,12aR)—N-(3-chlorobenzyl)-7-hydroxy-6,8-dioxo-1,2,3,4,6,8,12,12a-octahydro-1,4-methanodipyrido[1,2-a:1′,2′-d]pyrazine-9-carboxamide] | 4.3 nM | –
O=C(NCc1ccc(F)c(F)c1)c1cn2c(c(O)c1=O)C(=O)N1[C@H]3CC[C@H](C3)[C@@H]1C2 [Compound 66, (1R,4S,12aR)—N-(3,4-difluorobenzyl)-7-hydroxy-6,8-dioxo-1,2,3,4,6,8,12,12a-octahydro-1,4-methanodipyrido[1,2-a:1′,2′-d]pyrazine-9-carboxamide] | 9.4 nM | –
O=C(NCc1c(F)ccc(Cl)c1F)c1cn2c(c(O)c1=O)C(=O)N1[C@H]3CC[C@H](C3)[C@@H]1C2 [Compound 73, (1R,4S,12aR)—N-(3-chloro-2,6-difluorobenzyl)-7-hydroxy-6,8-dioxo-1,2,3,4,6,8,12,12a-octahydro-1,4-methanodipyrido[1,2-a:1′,2′-d]pyrazine-9-carboxamide] | 1.8 nM | –
O=C(NCc1ccc(Cl)c(F)c1)c1cn2c(c(O)c1=O)C(=O)N1[C@@H]3CC[C@@H](C3)O[C@H]1C2 [Compound 26, (2 S,5R,13aS)—N-(4-chloro-3-fluorobenzyl)-8-hydroxy-7,9-dioxo-2,3,4,5,7,9,13,13a-octahydro-2,5-methanopyrido[1′,2′: 4,5]pyrazino[2,1-b][1,3]oxazepine-10-carboxamide] | 10.3 nM | –
O=C(NCc1ccc(F)cc1F)c1cn2c(c(O)c1=O)C(=O)N1C(C2)[N@]2CCC[C@H]1C2 (stereo partly drawn) [Compound 19, (1R,5S)—N-(2,4-difluorobenzyl)-8-hydroxy-7,9-dioxo-2,3,4,5,7,9,13,13a-octahydro-1,5-methanopyrido[1′,2′:4,5]pyrazino[1,2-a][1,3]diazepine-10-carboxamide] | 2.8 nM | –
O=C(NCc1c(F)cc(F)cc1F)c1cn2c(c(O)c1=O)C(=O)N1[C@H](C2)[C@H]2C[C@@H]1C(F)(F)C2 [Compound 83, (1S,4R,12aS)-3,3-di fluoro-7-hydroxy-6,8-dioxo-N-(2,4,6-trifluorobenzyl)-1,2,3,4,6,8,12,12a-octahydro-1,4-methanodipyrido[1,2-a:1′,2′-d]pyrazine-9-carboxamide] | 1.9 nM | –
O=C(NCc1ccc(F)cc1F)c1cn2c(c(O)c1=O)C(=O)N1C(C2)O[C@@H]2CCC[C@H]1C2 (stereo partly drawn) [Compound 8, (2R,6S)—N-(2,4-difluorobenzyl)-9-hydroxy-8,10-dioxo-3,4,5,6,8,10,14,14a-octahydro-2H-2,6-methanopyrido[1′,2′:4,5]pyrazino[2,1-b][1,3]oxazocine-11-carboxamide] | 2.5 nM | –
O=C(NCc1ccc(F)cc1F)c1cn2c(c(O)c1=O)C(=O)N1[C@H]3CC[C@H](C3)[C@@H]1C2 [Compound 47, (1R,4S,12aR)—N-(2,4-difluorobenzyl)-7-hydroxy-6,8-dioxo-1,2,3,4,6,8,12,12a-octahydro-1,4-methanodipyrido[1,2-a:1′,2′-d]pyrazine-9-carboxamide] | – | 1.9 nM
C[C@H]1C[C@@H]2C[C@H]1N1C(=O)c3c(O)c(=O)c(C(=O)NCc4c(F)cc(F)cc4F)cn3C[C@@H]21 [Compound 99, (1R,3S,4R,12aR)-7-hydroxy-3-methyl-6,8-dioxo-N-(2,4,6-trifluorobenzyl)-1,2,3,4,6,8,12,12a-octahydro-1,4-methanodipyrido[1,2-a:1′,2′-d]pyrazine-9-carboxamide] | 2 nM | –
O=C(NCc1c(F)cc(F)cc1F)c1cn2c(c(O)c1=O)C(=O)N1[C@H](C2)[C@H]2C[C@H](F)[C@@H]1C2 [Compound 81, (1R,3S,4S,12aS)-3-fluoro-7-hydroxy-6,8-dioxo-N-(2,4,6-trifluorobenzyl)-1,2,3,4,6,8,12,12a-octahydro-1,4-methanodipyrido[1,2-a:1′,2′-d]pyrazine-9-carboxamide] | 1.9 nM | –
O=C(NCc1c(F)cc(F)cc1F)c1cn2c(c(O)c1=O)C(=O)N1[C@@H]3C[C@@H](C[C@H]3F)[C@@H]1C2 [Compound 82, (1S,3R,4R,12aR)-3-fluoro-7-hydroxy-6,8-dioxo-N-(2,4,6-trifluorobenzyl)-1,2,3,4,6,8,12,12a-octahydro-1,4-methanodipyrido[1,2-a:1′,2′-d]pyrazine-9-carboxamide] | 2.9 nM | –
